Entries after “also recorded” stand apart in the source; their conditions may differ.
How the values were obtained:
[1] = biological target: T1, human phenylalanine hydroxylase (hPAH) (Homo sapiens, UniProt P00439); assay: Steady-state kinetics of hPAH for L-Phe; assay type: biochemical; details: 100 μM 3HQ; for S0.5 (L-Phe concentration at half-maximal activity) / h (Hill coefficient) / ki (substrate inhibition): 75 μM BH4, 25 °C; for S0.5 (L-Phe concentration at half-maximal activity): Km for compounds 3 and 11 (Michaelis–Menten fits); for Vmax: 75 μM BH4, L-Phe 25 μM to 2.5 mM, 25 °C; for Activation Ratio (L-Phe activation): 100 μM substrate; for kcat/S0.5 (catalytic efficiency): calculated with hPAH subunit MM 55 kDa
T1 construct: Recombinant full-length wild-type (WT) hPAH was expressed in E. coli Top10 cells in fusion with a hexa-histidyl peptide; made in house; host or cells: E. coli Top10
T1 sequence (P00439 1-452): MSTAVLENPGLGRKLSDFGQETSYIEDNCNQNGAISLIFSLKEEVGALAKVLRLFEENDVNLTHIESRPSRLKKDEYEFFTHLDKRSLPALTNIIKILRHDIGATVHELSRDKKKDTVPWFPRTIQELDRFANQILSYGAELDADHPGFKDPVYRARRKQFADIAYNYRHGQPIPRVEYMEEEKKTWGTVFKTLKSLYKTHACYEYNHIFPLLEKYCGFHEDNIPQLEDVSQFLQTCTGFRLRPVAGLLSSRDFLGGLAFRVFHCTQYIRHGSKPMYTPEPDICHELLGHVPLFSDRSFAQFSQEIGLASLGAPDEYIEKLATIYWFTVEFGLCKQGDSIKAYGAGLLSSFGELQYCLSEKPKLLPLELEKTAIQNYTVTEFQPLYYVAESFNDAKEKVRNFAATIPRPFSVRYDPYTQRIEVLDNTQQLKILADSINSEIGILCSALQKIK
Protocol: (§1) The hPAH activity was measured essentially as previously described. Briefly, the enzymatic reaction was performed in a 200 μL final volume, containing 250 mM Na-HEPES, pH 7, 0.1 mg/mL catalase (Sigma-Aldrich; St. Louis, MO, USA), 5 μg (final concentration of 0.112 μM of tetramer) of recombinant hPAH tetramers and 100 μM (NH4)2Fe(II)SO4. Using 100 μM L-Phe and 100 μM of tested compound, three experimental conditions were used to study the compounds’ modulatory effect, namely: non activated (NA), 3HQ-activated (3HQ-A) and substrate/3HQ-activated (Phe/3HQ-A) (Supplementary Figure S3). The reaction was started by addition of 75 μM BH4 (Schircks Laboratories; Bauma, Switzerland) prepared in 5 mM ascorbic acid. In the NA assay, the L-Phe substrate and tested compounds were added together with 75 µM BH4 at the start of the hydroxylation reaction. In the 3HQ-A condition, hPAH was pre-incubated with the tested compound for 4 min at 25 °C and the reaction was started by the addition of BH4 together with L-Phe. In the Phe/3HQ-A condition, hPAH was pre-incubated simultaneously with L-Phe and the tested compound (4 min, 25 °C). Appropriate control reactions were performed where the compounds were omitted and 1% DMSO was used. Kinetic parameters were determined using variable concentrations of L-Phe (25 to 2500 μM) and fixed concentrations of BH4 (75 μM) and tested compound (100 μM). After a 1-min incubation, the reaction was stopped, and the amount of L-Tyr produced was quantified by HPLC as previously described. The specific hPAH enzymatic activity is expressed as nmol of L-Tyr produced during 1 min per mg of protein (nmol L-Tyr.min^−1.mg^−1). The steady-state kinetic data were analyzed by nonlinear regression analysis using GraphPad Prism (La Jolla, CA, USA). Data was fitted to the modified Hill equation accounting for cooperative substrate binding as well as substrate inhibition (Equation (1)), to the modified Michaelis–Menten equation which accounts for substrate inhibition (Equation (2)) and to the non-modified Michaelis–Menten equation:v = (Vmax + Vi ([S]^x/Ki^x))/(1 + (K^h/[S]^h) + ([S]^x/Ki^x))(1) v = (Vmax [S])/(Km + [S](1 + [S]/Ki))(2)

[2] = biological target: T1, human phenylalanine hydroxylase (hPAH); assay: Time-dependent loss of hPAH activity at 42 °C; assay type: biochemical; details: 100 μM compound; for protective effect on hPAH activity over time: up to 120 min at 42 °C; for remaining activity at 100 µM: read-out: hPAH residual activity, % of control sample
Protocol: The hPAH time-dependent loss of activity at a fixed temperature was assessed in a period of 120 min, in the absence and presence of compounds. In these assays, the enzymatic reaction was performed essentially as described above for the Phe/3HQ-A condition. Compounds (100 μM) were pre-incubated with the enzyme at 42 °C. After a 30, 45, 60, 90 and 120 min period, an aliquot of the protein (5 μg) was incubated, at 37 °C, with 100 μM L-Phe for 4 min, and the reaction proceeded as above at 37 °C [19].

[3] = biological target: T1, human phenylalanine hydroxylase (hPAH); assay: Limited proteolysis of hPAH by trypsin; details: 100 μM in 1% DMSO, 25 °C, trypsin:hPAH 1:200; control 0.41 ± 0.03
Protocol: Limited proteolysis of purified hPAH was performed as previously described, at 25 °C in SEC buffer and with a trypsin (Sigma-Aldrich) to hPAH ratio of 1:200 (by mass; final hPAH protein concentration 300 μg/mL), in the presence of 100 µM of 3HQ derivatives or 1% DMSO. Control assays were also performed in the presence of 100 μM and 1 mM L-Phe. At different time points (0 to 60 min), aliquots of the reaction were mixed with soybean trypsin inhibitor (Sigma-Aldrich) at a protease to inhibitor ratio of 1:1.5 (by mass) and analyzed by SDS-PAGE (10% polyacrylamide). The band corresponding to full-length hPAH was quantified by densitometric analysis using the Quantity One 1D software v4.6.3 (Bio-Rad). Data were fitted to a single exponential decay equation to obtain the decay constant of proteolysis (kP). Assays were performed in duplicate and data represent the mean ± SEM.

[4] = biological target: T1, human phenylalanine hydroxylase (hPAH); assay: hPAH enzymatic activity assay (NA, 3HQ-A and Phe/3HQ-A conditions); assay type: biochemical; details: 100 μM compound; for remaining activity at 100 µM: read-out: hPAH residual activity vs control
Protocol: as §1

[5] = biological target: T2, hPAH non-heme ferric center (Homo sapiens, UniProt P00439); assay: Electron paramagnetic resonance spectroscopy; details: ≈100 μM hPAH monomer, equimolar 3HQ, 4K
T2 construct: Recombinant full-length wild-type (WT) hPAH was expressed in E. coli Top10 cells in fusion with a hexa-histidyl peptide; made in house; host or cells: E. coli Top10
T2 sequence (P00439 1-452): T1 sequence (P00439 1-452)
Protocol: EPR spectra of hPAH (at ≈100 μM monomer) in the absence or presence of equimolar amounts of 3HQs were recorded at 4K in a Bruker EMX spectrometer (Billerica, MA, USA) equipped with an ESR-900 continuous flow helium cryostat from Oxford Instruments (Abingdon, Johnson, UK). Spectra were recorded for control samples containing 100 μM FeCl3 solutions incubated with equimolar amounts of 3HQs to evaluate direct binding of the compounds to free Fe^3+ in solution. Microwave frequency: 9.39 GHz; microwave power, 2 mW; modulation amplitude, 1 mT.

| kcat/S0.5 (catalytic efficiency) [1] [M⁻¹ s⁻¹] | protective effect on hPAH activity over time [2] | proteolytic rate (kP) [3] [min⁻¹] | remaining activity at 100 µM ([4]; 3HQ-A condition (4 min pre-incubation with compound, 25 °C)) [%] | hPAH activity, fold increase vs control ([4]; NA (non-activated) condition, 100 μM L-Phe, 1% DMSO control) [fold] | remaining activity at 100 µM ([4]; Phe/3HQ-A condition (pre-incubation with L-Phe and compound)) [%] | SMILES | effect on hPAH kinetic behaviour [1] | S0.5 (L-Phe concentration at half-maximal activity) [1] [µM] | Vmax [1] | Activation Ratio (L-Phe activation) [1] | fold activation by L-Phe (Phe/3HQ-A vs. 3HQ-A) ([4]; 100 μM L-Phe) [fold] | change of hPAH EPR spectrum [5] | h (Hill coefficient) [1] | ki (substrate inhibition) [1] [mM] | remaining activity at 100 µM ([2]; 60 min at 42 °C) [%] | remaining activity at 100 µM ([2]; 90 min at 42 °C) [%] | remaining activity at 100 µM ([2]; 120 min at 42 °C) [%] | remaining activity at 100 µM ([4]; NA (non-activated) condition) [%] | fold enzyme activation by compound (3HQ-A vs. NA) [4] [fold] |
| --- | --- | --- | --- | --- | --- | --- | --- | --- | --- | --- | --- | --- | --- | --- | --- | --- | --- | --- | --- |
| 21700 | protective effect was not observed | 0.29 ± 0.04 | 69 | 1.1 | 57 | CCOC(=O)[C@H](Cc1ccccc1)NC(=O)c1c(O)c(=O)[nH]c2ccc(OC(F)(F)F)cc12 [Compound 3] | weak competitive inhibitors; also recorded: loss of cooperativity | 206 ± 99 | 4.82 ± 0.64 10^3 nmol Tyr.min^−1.mg^−1 | 1.3 | 1.3 | significant increase in the intensity of this main band at g = 4.25 | – | – | – | – | – | – | – |
| 35000 | protective effect was not observed | 0.30 ± 0.01 | – | – | – | O=C(NCCc1ccccc1)c1c(O)c(=O)[nH]c2ccc(OC(F)(F)F)cc12 [Compound 8] | weak competitive inhibitors | 115 ± 9 | 4.38 ± 0.94 10^3 nmol Tyr.min^−1.mg^−1 | 1.7 | 1.7 | less rhombic EPR signals appeared | 1.2 ± 0.3 | 7.2 ± 0.2 | – | – | – | – | – |
| – | – | 0.15 ± 0.01 | – | – | – | N[C@@H](Cc1ccccc1)C(=O)O [L-Phe, L-phenylalanine, reference compound] | – | – | – | – | – | – | – | – | – | – | – | – | – |

| SMILES | kcat/S0.5 (catalytic efficiency) [1] [M⁻¹ s⁻¹] | protective effect on hPAH activity over time [2] | proteolytic rate (kP) [3] [min⁻¹] | remaining activity at 100 µM ([4]; 3HQ-A condition (4 min pre-incubation with compound, 25 °C)) [%] | hPAH activity, fold increase vs control ([4]; NA (non-activated) condition, 100 μM L-Phe, 1% DMSO control) [fold] | remaining activity at 100 µM ([4]; Phe/3HQ-A condition (pre-incubation with L-Phe and compound)) [%] | effect on hPAH kinetic behaviour [1] | S0.5 (L-Phe concentration at half-maximal activity) [1] [µM] | Vmax [1] | Activation Ratio (L-Phe activation) [1] | fold activation by L-Phe (Phe/3HQ-A vs. 3HQ-A) ([4]; 100 μM L-Phe) [fold] | change of hPAH EPR spectrum [5] | h (Hill coefficient) [1] | ki (substrate inhibition) [1] [mM] | remaining activity at 100 µM ([2]; 60 min at 42 °C) [%] | remaining activity at 100 µM ([2]; 90 min at 42 °C) [%] | remaining activity at 100 µM ([2]; 120 min at 42 °C) [%] | remaining activity at 100 µM ([4]; NA (non-activated) condition) [%] | fold enzyme activation by compound (3HQ-A vs. NA) [4] [fold] |
| --- | --- | --- | --- | --- | --- | --- | --- | --- | --- | --- | --- | --- | --- | --- | --- | --- | --- | --- | --- |
| COC(=O)CC[C@H](NC(=O)c1c(O)c(=O)[nH]c2ccc(OC(F)(F)F)cc12)C(=O)OC [Compound 9] | 33300 | – | 0.38 ± 0.04 | – | – | – | – | 108 ± 34 | 3.94 ± 0.64 10^3 nmol Tyr.min^−1.mg^−1 | 1.4 | 1.4 | less rhombic EPR signals appeared | 1.9 ± 0.8 | 23.3 ± 0.5 | 136 ± 7 | 121 ± 32 | 176 ± 32 | 58 | – |
| COC(=O)CNC(=O)c1c(O)c(=O)[nH]c2ccc(OC(F)(F)F)cc12 [Compound 11] | – | – | 0.41 ± 0.01 | – | – | – | loss of cooperativity | 386 ± 97 | 7.75 ± 1.23 ** 10^3 nmol Tyr.min^−1.mg^−1 | 1.5 | 1.5 | less rhombic EPR signals appeared | – | 2.5 ± 0.3 | – | 117 ± 33 | 168 ± 64 | – | 1.6 |
